Values of other authors as cited in patent publication US20040048919A1, “Compositions and methods for reduction of inflammatory symptoms and/or biomarkers in female subjects” (priority 2002, published 2004).

Details: 3.6 gm DHA per day (50x average dietary intake)

CC/C=C\C/C=C\C/C=C\C/C=C\C/C=C\C/C=C\CCC(=O)O [DHA, all-cis 4,7, 10, 13, 16, 19-docosahexaenoic acid]
toxicities on ingestion by humans: no apparent toxicities
